Measured values taken from ChEMBL document CHEMBL1201862, “PubChem BioAssay data set” (2004).
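Grown in 96-well plates, cells were treated for 48 hours with each compound at five concentrations. Insufficient inhibition: endpoint recorded as highest concentration tested. GI50 = concentration required for 50% inhibition of growth.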 Calls of active or inactive are those of the source. No stated cut-off is given here; in the data, active = GI50 up to about 1.1 µM and inactive = higher.

Key:
Test in all cases: NCI anticancer screen, dose series, 48 h
[1] = tested on: UACC-62
[2] = tested on: NCI-H460
[3] = tested on: SF-295
[4] = tested on: HT-29
[5] = tested on: UACC-257
[6] = tested on: OVCAR-3
[7] = tested on: CAKI-1
[8] = tested on: A549
[9] = tested on: TK-10
[10] = tested on: PC-3
[11] = tested on: U-251
[12] = tested on: Hs-578T
[13] = tested on: SR
[14] = tested on: OVCAR-5
[15] = tested on: MDA-N
[16] = tested on: HCC 2998
[17] = tested on: SK-OV-3
[18] = tested on: SNB-19
[19] = tested on: Malme-3M
[20] = tested on: EKVX
[21] = tested on: DU-145
[22] = tested on: HOP-62
[23] = tested on: 786-0
[24] = tested on: NCI/ADR-RES
[25] = tested on: RPMI-8226
[26] = tested on: MDA-MB-435
[27] = tested on: CCRF-CEM
[28] = tested on: OVCAR-8
[29] = tested on: SN12C
[30] = tested on: M14
[31] = tested on: MDA-MB-231
[32] = tested on: OVCAR-4
[33] = tested on: BT-549
[34] = tested on: MCF7
[35] = tested on: NCI-H226
[36] = tested on: LOX IMVI
[37] = tested on: COLO 205
[38] = tested on: K562
[39] = tested on: SF-268
[40] = tested on: HCT-116
[41] = tested on: SK-MEL-28
[42] = tested on: SW-620
[43] = tested on: UO-31
[44] = tested on: HCT-15
[45] = tested on: SF-539
[46] = tested on: NCI-H23
[47] = tested on: MOLT-4
[48] = tested on: HL-60
[49] = tested on: SNB-75
[50] = tested on: SK-MEL-5
[51] = tested on: SK-MEL-2
[52] = tested on: T47D
[53] = tested on: RXF 393
[54] = tested on: NCI-H522
[55] = tested on: KM12
[56] = tested on: ACHN
[57] = tested on: HOP-92
[58] = tested on: A498
[59] = tested on: IGROV-1

In the case of CCCCOCCOC1=C(Cl)C(=O)c2c(O)ccc(O)c2C1=O, the GI50 [1] is reported as 1120 nM (active), the GI50 [2] is reported as 1490 nM (inactive) and the GI50 [3] is reported as 1530 nM (inactive). For the same molecule, the GI50 [4] was 689 nM (active), the GI50 [5] was 429 nM (active) and the GI50 [6] was 547 nM (active). The GI50 [7] was 407 nM (active), the GI50 [8] was 2110 nM (inactive) and the GI50 [9] was 578 nM (active). For the same molecule, the GI50 [10] was 1600 nM (inactive), the GI50 [11] was 1320 nM (inactive) and the GI50 [12] was 2490 nM (inactive). The GI50 [13] was 99.5 nM (active), the GI50 [14] was 1370 nM (inactive) and the GI50 [15] was 272 nM (active). For the same molecule, the GI50 [16] was 2500 nM (inactive), the GI50 [17] was 2980 nM (inactive) and the GI50 [18] was 1360 nM (inactive). The GI50 [19] was 259 nM (active), the GI50 [20] was 2940 nM (inactive) and the GI50 [21] was 1660 nM (inactive). For the same molecule, the GI50 [22] was 1170 nM (inactive), the GI50 [23] was 229 nM (active) and the GI50 [24] was 614 nM (active). For the same molecule, the GI50 [25] was 255 nM (active), the GI50 [26] was 325 nM (active) and the GI50 [27] was 27.4 nM (active). The GI50 [28] was 347 nM (active), the GI50 [29] was 465 nM (active) and the GI50 [30] was 217 nM (active). For the same molecule, the GI50 [31] was 493 nM (active), the GI50 [32] was 822 nM (active) and the GI50 [33] was 175 nM (active). The GI50 [34] was 285 nM (active), the GI50 [35] was 2260 nM (inactive) and the GI50 [36] was 439 nM (active). For the same molecule, the GI50 [37] was 194 nM (active), the GI50 [38] was 35.6 nM (active) and the GI50 [39] was 1600 nM (inactive). The GI50 [40] was 261 nM (active), the GI50 [41] was 562 nM (active) and the GI50 [42] was 188 nM (active). For the same molecule, the GI50 [43] was 748 nM (active), the GI50 [44] was 151 nM and the GI50 [45] was 993 nM (active). For the same molecule, the GI50 [46] was 420 nM (active), the GI50 [47] was 51 nM (active) and the GI50 [48] was 34.7 nM (active). For the same molecule, the GI50 [49] was 687 nM (active), the GI50 [50] was 733 nM (active) and the GI50 [51] was 1370 nM (inactive). The GI50 [52] was 532 nM (active), the GI50 [53] was 227 nM (active) and the GI50 [54] was 392 nM (active). For the same molecule, the GI50 [55] was 1830 nM (inactive), the GI50 [56] was 321 nM (active) and the GI50 [57] was 288 nM (active). For the same molecule, the GI50 [58] was 1820 nM (inactive) and the GI50 [59] was 855 nM (active).
For Cc1c(N)nc([C@H](CC(N)=O)NC[C@H](N)C(N)=O)nc1C(=O)N[C@H](C(=O)N[C@H](C)[C@@H](O)CC(=O)N[C@H](C(=O)NC(O[C@@H]1O[C@@H](C)[C@@H](N)[C@@H](O)[C@H]1O)C(O)c1nc(-c2nc(C(=O)NCCCCN)cs2)cs1)[C@@H](C)O)[C@@H](O[C@@H]1O[C@@H](CO)[C@@H](O)[C@H](O)[C@@H]1O[C@H]1O[C@H](CO)[C@@H](O)[C@H](OC(N)=O)[C@@H]1O)c1c[nH]cn1 (stereo partly specified), the GI50 [1] was 11900 nM (inactive), the GI50 [2] was 145 nM (active) and the GI50 [3] was 1140 nM (inactive). For the same molecule, the GI50 [4] was > 50000 nM (inactive), the GI50 [5] was > 50000 nM (inactive) and the GI50 [6] was > 48100 nM (inactive). For the same molecule, the GI50 [7] was 5850 nM (inactive), the GI50 [8] was 18700 nM (inactive) and the GI50 [9] was > 50000 nM (inactive). For the same molecule, the GI50 [10] was > 50000 nM (inactive), the GI50 [11] was > 50000 nM (inactive) and the GI50 [12] was 18700 nM (inactive). For the same molecule, the GI50 [13] was 31.6 nM (active), the GI50 [14] was > 50000 nM (inactive) and the GI50 [15] was > 50000 nM (inactive). The GI50 [16] was 134 nM (active), the GI50 [17] was > 50000 nM (inactive) and the GI50 [18] was > 50000 nM (inactive). For the same molecule, the GI50 [20] was > 50000 nM (inactive), the GI50 [21] was > 27700 nM (inactive) and the GI50 [22] was 1980 nM (inactive). For the same molecule, the GI50 [24] was 7890 nM (inactive), the GI50 [25] was > 50000 nM (inactive) and the GI50 [26] was > 50000 nM (inactive). The GI50 [27] was > 50000 nM (inactive), the GI50 [28] was 12600 nM (inactive) and the GI50 [29] was 16500 nM (inactive). For the same molecule, the GI50 [30] was > 36900 nM (inactive), the GI50 [31] was > 50000 nM (inactive) and the GI50 [32] was > 50000 nM (inactive). For the same molecule, the GI50 [33] was > 50000 nM (inactive), the GI50 [34] was > 39900 nM (inactive) and the GI50 [35] was 216 nM (active). For the same molecule, the GI50 [36] was 2890 nM (inactive), the GI50 [37] was > 50000 nM (inactive) and the GI50 [38] was > 50000 nM (inactive). For the same molecule, the GI50 [39] was 16100 nM (inactive), the GI50 [40] was 3860 nM (inactive) and the GI50 [41] was > 50000 nM (inactive). The GI50 [42] was > 50000 nM (inactive), the GI50 [43] was 3780 nM (inactive) and the GI50 [44] was greater than 32200 nM. The GI50 [45] was 311 nM (active), the GI50 [46] was 5730 nM (inactive) and the GI50 [47] was > 39900 nM (inactive). For the same molecule, the GI50 [48] was > 44200 nM (inactive), the GI50 [49] was 6730 nM (inactive) and the GI50 [50] was 12600 nM (inactive). For the same molecule, the GI50 [51] was > 50000 nM (inactive), the GI50 [52] was > 50000 nM (inactive) and the GI50 [53] was 7670 nM (inactive). For the same molecule, the GI50 [54] was 11200 nM (inactive), the GI50 [55] was 49100 nM (inactive) and the GI50 [56] was 223 nM (active). The GI50 [57] was 12900 nM (inactive), the GI50 [58] was > 50000 nM (inactive) and the GI50 [59] was 16000 nM (inactive).
